Read-outs that look alike come from different tables or passages of the source.
Assays:
[1] = tested on: HeLa S3 cells; assay: Growth inhibition of HeLa S3 cells (neutral red, 72 hours); type: cell-based; conditions: Homo sapiens, read-out: IC50 (drug concentration which inhibited growth of HeLa S3 cells by 50%)
Experimental: Test on Growth Inhibition of HeLa S3 cells
HeLa S3 cells diluted to 3 x 10^4 cells/ml with MEM medium containing 10% calf fetal serum and 2 mM glutamine were separately distributed by 0.1 ml each in each well of a 96 well microtiter plate.
After culturing at 37° C. overnight in a CO2 -incubator, 0.05 ml each of a test sample appropriately diluted with MEM medium was added to each well.
After culturing the cells for 72 hours in the CO2 -incubator, the culture supernatant was removed. After washing once with phosphate buffered physiological saline (PBS), 0.1 ml each of MEM medium containing 0.02% neutral red was added to each well and then cultured at 37° C. for an hour in the CO2 -incubator to stain the cells. After removing the culture supernatant, the cells were washed once with physiological saline, and the dye was extracted with 0.001N HCl/30% ethanol. Absorbance at […] of the extract was measured with a microplate reader. By comparing absorbance of extract of intact cells with that of the cells treated with a test compound in known concentrations, IC50, i.e. a drug concentration which inhibited growth of the cells by 50% was determined.

[2] = tested on: dd strain male mice; type: in vivo; conditions: intraperitoneal, 14 days observation
Experimental: Using dd strain male mice weighing 20±1 g, a test compound was intraperitoneally administered. MLD (the minimum lethal dose) was determined by observing the mortality for 14 days after administration.

[3] = tested on: various bacteria; conditions: cited from earlier work
[4] = tested on: lymphocytic leukemia P388; conditions: lymphocytic leukemia P388, etc.; cited from earlier work
[5] = HeLa S3 cells, 72 hours, neutral red staining

Compound	IC50 [1, 5] [nM]	Acute Toxicity (MLD), minimum lethal dose [2] [mg/kg]	IC50 ([1]; HeLa S3, 72 h) [nM]	further results
COC(=O)C1(C)NC2=C(C1=O)C13CC1CN(C(=O)COc1ccccc1)C3=CC2=O (stereo not shown) [Compound 14]	6.7	–	–	–
COC(=O)C1(C)Nc2c(O)cc3c(c2C1=O)C(CBr)CN3C(=O)/C=C/c1ccc(OC)c(OC)c1 (stereo not shown) [Compound 30]	–	0.082	0.034	–
COC(=O)C1(C)Nc2c(O)cc3c(c2C1=O)C(CBr)CN3C(=O)/C=C/c1cccc(OC)c1 (stereo not shown) [Compound 28]	–	0.16	2.5	–
COC(=O)C1(C)Nc2c(O)cc3c(c2C1=O)C(CBr)CN3C(=O)/C=C/c1ccc(NC(C)=O)cc1 (stereo not shown) [Compound 37]	0.74	–	–	–
COC(=O)C1(C)NC2=C(C1=O)C13CC1CNC3=CC2=O (stereo not shown) [Compound 18]	3900	–	–	–
COC(=O)C1(C)NC2=C(C1=O)C13CC1CN(C(=O)c1cc4ccccc4s1)C3=CC2=O (stereo not shown) [Compound 25]	7.6	–	–	–
COC(=O)C1(C)Nc2c(O)cc3c(c2C1=O)C(CBr)CN3C(=O)/C=C/c1ccc(C=O)cc1 (stereo not shown) [Compound 42]	–	2.5	–	–
COC(=O)C1(C)Nc2c(O)cc3c(c2C1=O)C(CBr)CN3C(=O)c1cc2ccccc2o1 (stereo not shown) [Compound 4]	–	0.25	0.1	–
COC(=O)C1(C)Nc2c(O)cc3c(c2C1=O)C(CBr)CN3C(=O)COc1ccccc1 (stereo not shown) [Compound 15]	–	4.0	3.1	–
COC(=O)C1(C)Nc2c(O)cc3c(c2C1=O)C(CBr)CN3C(=O)Nc1ccccc1 (stereo not shown) [Compound 9]	2.6	–	–	–
COC(=O)C1(C)Nc2c(O)cc3c(c2C1=O)C(CBr)CN3C(=O)c1cc2cc(N)ccc2[nH]1 (stereo not shown) [Compound 33]	0.88	–	–	–
COC(=O)C1(C)Nc2c(O)cc3c(c2C1=O)C(CI)CN3C(=O)c1cc2cc(OC)c(OC)c(OC)c2[nH]1 (stereo not shown) [Compound 5]	0.011	–	–	–
COC(=O)C1(C)NC2=C(C1=O)C13CC1CN(C(=O)Nc1ccccc1)C3=CC2=O (stereo not shown) [Compound 8]	3.2	–	–	–
COC(=O)C1(C)Nc2c(O)cc3c(c2C1=O)C(CBr)CN3C(=O)/C=C/c1ccc(N(C)C)cc1 (stereo not shown) [Compound 40]	–	0.31	0.085	–
COC(=O)C1(C)Nc2c(O)cc3c(c2C1=O)C(CBr)CN3C(=O)c1cc2ccccc2s1 (stereo not shown) [Compound 26]	–	2.2	–	–
COC(=O)C1(C)Nc2c(O)cc3c(c2C1=O)C(CBr)CN3C(=O)c1cc2cc(OC)c(OCc3ccccc3)c(OC)c2[nH]1 (stereo not shown) [Compound 55]	–	0.25	0.52	–
COC(=O)C1(C)NC2=C(C1=O)C13CC1CN(C(=O)c1cc4cc(OC)c(OC)c(OC)c4[nH]1)C3=CC2=O (stereo not shown) [DC-88A]	–	–	–	antibacterial activity [3]: antibacterial activity against various bacteria; antitumor activity against lymphocytic leukemia P388 [4]: antitumor activity against lymphocytic leukemia P388
COC(=O)C1(C)Nc2c(O)cc3c(c2C1=O)C(CBr)CN3C(=O)/C=C/c1cccc(OC(C)=O)c1 (stereo not shown) [Compound 35]	–	0.25	0.94	–
COC(=O)C1(C)Nc2c(O)cc3c(c2C1=O)C(CBr)CN3C(=O)CNc1ccccc1 (stereo not shown) [Compound 19]	–	2.5	–	–
COC(=O)C1(C)Nc2c(O)cc3c(c2C1=O)C(CBr)CN3C(=O)c1cc2ccccc2[nH]1 (stereo not shown) [Compound 2]	–	0.25	0.054	–

Compound	IC50 [1, 5] [nM]	Acute Toxicity (MLD), minimum lethal dose [2] [mg/kg]	IC50 ([1]; HeLa S3, 72 h) [nM]	further results
COC(=O)C1(C)Nc2c(O)cc3c(c2C1=O)C(CBr)CN3C(=O)c1cc2cc(OC)ccc2[nH]1 (stereo not shown) [Compound 3]	–	0.063	–	–
COC(=O)C1(C)Nc2c(O)cc3c(c2C1=O)C(CBr)CN3C(C)=O (stereo not shown) [Compound 22]	–	13	–	–
COC(=O)C1(C)Nc2c(O)cc3c(c2C1=O)C(CBr)CN3C(=O)c1cc2cc(NC(=O)c3cc4ccccc4[nH]3)ccc2[nH]1 (stereo not shown) [Compound 45]	–	0.63	1.1	–
COC(=O)C1(C)NC2=C(C1=O)C13CC1CN(C(=O)c1cc4cc(OC)c(OC)cc4[nH]1)C3=CC2=O (stereo not shown) [Compound 23]	< 0.024	–	–	–
COC(=O)C1(C)NC2=C(C1=O)C13CC1CN(C(=O)/C=C/c1cccc(OC)c1)C3=CC2=O (stereo not shown) [Compound 27]	0.6	–	–	–
COC(=O)C1(C)NC2=C(C1=O)C13CC1CN(C(=O)/C=C/c1ccccc1)C3=CC2=O (stereo not shown) [Compound 6]	2.3	–	–	–
COC(=O)C1(C)Nc2c(O)cc3c(c2C1=O)C(CBr)CN3C(=O)/C=C/c1ccc(OC)cc1 (stereo not shown) [Compound 38]	–	0.063	0.035	–
COC(=O)C1(C)Nc2c(O)cc3c(c2C1=O)C(CBr)CN3C(=O)/C=C/c1ccc(NC(=O)OCc2ccccc2)cc1 (stereo not shown) [Compound 36]	–	1.3	–	–
COC(=O)C1(C)Nc2c(O)cc3c(c2C1=O)C(CBr)CN3C(=O)c1cc2cc(OC)ccc2o1 (stereo not shown) [Compound 34]	–	0.063	0.05	–
COC(=O)C1(C)NC2=C(C1=O)C13CC1CN(C(=O)c1cc4cc(NC(=O)OC(C)(C)C)ccc4[nH]1)C3=CC2=O (stereo not shown) [Compound 32]	–	0.25	–	–
COC(=O)C1(C)Nc2c(O)cc3c(c2C1=O)C(CBr)CN3C(=O)C1Cc2ccccc2N1 (stereo not shown) [Compound 31]	81	20	–	–
COC(=O)C1(C)NC2=C(C1=O)C13CC1CN(C(=O)c1cc4ccccc4[nH]1)C3=CC2=O (stereo not shown) [Compound 1]	1.1	–	–	–
COC(=O)C1(C)Nc2c(O)cc3c(c2C1=O)C(CBr)CN3C(=O)/C=C/c1ccccc1 (stereo not shown) [Compound 7]	–	1.0	5.7	–
COC(=O)C1(C)Nc2c(O)cc3c(c2C1=O)C(CBr)CN3C(=O)CCc1ccc(OC)c(OC)c1 (stereo not shown) [Compound 39]	–	1.3	–	–
COC(=O)C1(C)Nc2c(O)cc3c(c2C1=O)C(CBr)CN3C(=O)c1cc2cc(NC(=O)c3cc4ccccc4o3)ccc2[nH]1 (stereo not shown) [Compound 46]	–	0.63	0.4	–
COC(=O)C1(C)Nc2c(O)cc3c(c2C1=O)C(CBr)CN3C(=O)c1cc2cc(OC)c(OC)cc2[nH]1 (stereo not shown) [Compound 24]	–	0.25	0.024	–
COC(=O)C1(C)NC2=C(C1=O)C13CC1CN(C(=O)/C=C/c1ccc(OC)c(OC)c1)C3=CC2=O (stereo not shown) [Compound 29]	–	–	< 0.024	–
COC(=O)C1(C)Nc2c(O)cc3c(c2C1=O)C(CBr)CN3C(=O)/C=C/c1ccc([N+](=O)[O-])cc1 (stereo not shown) [Compound 41]	–	1.3	–	–
COC(=O)C1(C)Nc2c(O)cc3c(c2C1=O)C(CBr)CN3C(=O)/C=C/c1ccc(N)cc1 (stereo not shown) [Compound 48]	1.2	–	–	–
